Measured values from ChEMBL document CHEMBL1133001, “Protection against oxidative damage by iron chelators: effect of lipophilic analogues and prodrugs of N,N'-bis(3,4,5-trimethoxybenzyl)ethylenediamine- N,N'-diacetic acid (OR10141)” (J Med Chem, 2000).

Experiment: Compound was tested for inhibition of hydrogen peroxide toxicity against human skin fibroblasts
Assay type: functional

| Compound | IC50 [µM] |
| --- | --- |
| CCCCCCCOc1c(OC)cc(CN(CCN(CC(=O)O)Cc2cc(OC)c(OCCCCCCC)c(OC)c2)CC(=O)O)cc1OC | 50 |
| COc1cc(CN(CCN(CC(=O)OCOC(C)=O)Cc2cc(OC)c(OC)c(OC)c2)CC(=O)OCOC(C)=O)cc(OC)c1OC | 3 |
